Measured values as given in the supplement of paper PMC11208160.

Test: recombinant barcode read abundance after kanamycin selection (control-corrected) (log10(CPM+1)); higher = more efficient recombination; sequences stand for … in AGTGCAGAGAAAATCGGCCAGTTTTCTCTGCCTGCAGTCCGCATGCCGT…ATTTATGCAGCGGACTGCCTTTCTCCCAAAGTGATAAACCGGACAGTATCATGGACCGGTTTTCCCGGTAATCCGTATTTGCAAGGTTGGTTTCACT; site = the 11-nt target
In short: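 In E. coli, a pooled library matched targets to IS621 bridge RNA target-binding loops and was introduced alongside a donor plasmid. Cells went onto chloramphenicol/ampicillin/kanamycin with 0.1 mM IPTG or onto chloramphenicol/ampicillin LB agar as control, in duplicate. Recombination efficiency, from recombinant-junction barcodes as counts per million, is averaged and control-corrected. It is reported as log10(CPM+1).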

Row | Sequence | recombinant barcode read abundance (log10)
1 | TCTACCCGTTGGGTTCTAACCTGTTGCTGAC [TCTACCCCTCA_LTGcore_GT_RTGcore_GT] (site TCTACCCCTCA) (LTG core: GT, RTG core: GT) | 0.0436
2 | TGATACCAATGGGTTCTAACCTGTTGCGTTT [TGATACCCTAC_LTGcore_AA_RTGcore_AA] (site TGATACCCTAC) (LTG core: AA, RTG core: AA) | 0.0446
3 | TGATACCAGTGGGTTCTAACCTGTTGCGTCT [TGATACCCTAC_LTGcore_AG_RTGcore_AG] (site TGATACCCTAC) (LTG core: AG, RTG core: AG) | 0.256
4 | TGATACCCATGGGTTCTAACCTGTTGCGTTG [TGATACCCTAC_LTGcore_CA_RTGcore_CA] (site TGATACCCTAC) (LTG core: CA, RTG core: CA) | 0.0326
5 | TGATACCCTTGGGTTCTAACCTGTTGCGTAC [TGATACCCTAC_LTGcore_CT_RTGcore_GT] (site TGATACCCTAC) (LTG core: CT, RTG core: GT) | 0.08
6 | TGATACCCTTGGGTTCTAACCTGTTGCGTAG [TGATACCCTAC_LTGcore_CT_RTGcore_CT] (site TGATACCCTAC) (LTG core: CT, RTG core: CT) | 2.73
7 | TGATACCCTTGGGTTCTAACCTGTTGCGTCA [TGATACCCTAC_LTGcore_CT_RTGcore_TG] (site TGATACCCTAC) (LTG core: CT, RTG core: TG) | 0.796
8 | TGATACCCTTGGGTTCTAACCTGTTGCGTTA [TGATACCCTAC_LTGcore_CT_RTGcore_TA] (site TGATACCCTAC) (LTG core: CT, RTG core: TA) | 0.0153
9 | TGATACCGATGGGTTCTAACCTGTTGCGTTC [TGATACCCTAC_LTGcore_GA_RTGcore_GA] (site TGATACCCTAC) (LTG core: GA, RTG core: GA) | 0.269
10 | TGATACCGGTGGGTTCTAACCTGTTGCGTAG [TGATACCCTAC_LTGcore_GG_RTGcore_CT] (site TGATACCCTAC) (LTG core: GG, RTG core: CT) | 0.108
11 | TGATACCTGTGGGTTCTAACCTGTTGCGTCA [TGATACCCTAC_LTGcore_TG_RTGcore_TG] (site TGATACCCTAC) (LTG core: TG, RTG core: TG) | 0.256
12 | TGTATTCAGTGGGTTCTAACCTGTTGCCTCT [TGTATTCCTAG_LTGcore_AG_RTGcore_AG] (site TGTATTCCTAG) (LTG core: AG, RTG core: AG) | 0.00767
13 | TGTATTCATTGGGTTCTAACCTGTTGCCTAG [TGTATTCCTAG_LTGcore_AT_RTGcore_CT] (site TGTATTCCTAG) (LTG core: AT, RTG core: CT) | 0.0853
14 | TGTATTCCATGGGTTCTAACCTGTTGCCTAG [TGTATTCCTAG_LTGcore_CA_RTGcore_CT] (site TGTATTCCTAG) (LTG core: CA, RTG core: CT) | 0.0466
15 | TGTATTCCTTGGGTTCTAACCTGTTGCCTAG [TGTATTCCTAG_LTGcore_CT_RTGcore_CT] (site TGTATTCCTAG) (LTG core: CT, RTG core: CT) | 0.129
16 | TGTATTCCTTGGGTTCTAACCTGTTGCCTTA [TGTATTCCTAG_LTGcore_CT_RTGcore_TA] (site TGTATTCCTAG) (LTG core: CT, RTG core: TA) | 0.0748
17 | TGTATTCGATGGGTTCTAACCTGTTGCCTAG [TGTATTCCTAG_LTGcore_GA_RTGcore_CT] (site TGTATTCCTAG) (LTG core: GA, RTG core: CT) | 0.0114
18 | TGTATTCGTTGGGTTCTAACCTGTTGCCTAG [TGTATTCCTAG_LTGcore_GT_RTGcore_CT] (site TGTATTCCTAG) (LTG core: GT, RTG core: CT) | 0.0893
19 | TTATAAAACTGGGTTCTAACCTGTTGCCTGT [TTATAAACTAG_LTGcore_AC_RTGcore_AC] (site TTATAAACTAG) (LTG core: AC, RTG core: AC) | 0.0452
20 | TTATAAAAGTGGGTTCTAACCTGTTGCCTCT [TTATAAACTAG_LTGcore_AG_RTGcore_AG] (site TTATAAACTAG) (LTG core: AG, RTG core: AG) | 0.0267
21 | TTATAAACGTGGGTTCTAACCTGTTGCCTCG [TTATAAACTAG_LTGcore_CG_RTGcore_CG] (site TTATAAACTAG) (LTG core: CG, RTG core: CG) | 0.193
22 | TTATAAACTTGGGTTCTAACCTGTTGCCTCA [TTATAAACTAG_LTGcore_CT_RTGcore_TG] (site TTATAAACTAG) (LTG core: CT, RTG core: TG) | 0.402
23 | TTATAAACTTGGGTTCTAACCTGTTGCCTCT [TTATAAACTAG_LTGcore_CT_RTGcore_AG] (site TTATAAACTAG) (LTG core: CT, RTG core: AG) | 0.0489
24 | TTATAAACTTGGGTTCTAACCTGTTGCCTGT [TTATAAACTAG_LTGcore_CT_RTGcore_AC] (site TTATAAACTAG) (LTG core: CT, RTG core: AC) | 0.0449
25 | TTATAAACTTGGGTTCTAACCTGTTGCCTTA [TTATAAACTAG_LTGcore_CT_RTGcore_TA] (site TTATAAACTAG) (LTG core: CT, RTG core: TA) | 0.076
26 | TTATAAAGCTGGGTTCTAACCTGTTGCCTGC [TTATAAACTAG_LTGcore_GC_RTGcore_GC] (site TTATAAACTAG) (LTG core: GC, RTG core: GC) | 0
27 | TTATAAATCTGGGTTCTAACCTGTTGCCTAG [TTATAAACTAG_LTGcore_TC_RTGcore_CT] (site TTATAAACTAG) (LTG core: TC, RTG core: CT) | 0.235
28 | TTATAAATTTGGGTTCTAACCTGTTGCCTAA [TTATAAACTAG_LTGcore_TT_RTGcore_TT] (site TTATAAACTAG) (LTG core: TT, RTG core: TT) | 0.0515
